For one assay, the system named is Chlorella fusca (CF). Put plainly: Algistatic finish (SM 023) of pure acrylate house paint. The arrangement: key to Surface colonization: −: no growth; +: some growth; ++: moderate growth; +++: strong growth. The class given is cell-based. On the procedure:
(§1) In separate batches, the test concentrations of the active compounds/products were incorporated into the house paint, and the fungicidal and/or algistatic finish was determined using the stated test methods.
(§2) Incorporation and testing were carried out according to the methods SM 022 and SM 023 below.
This laboratory method was employed for determining the resistance of house coatings to colonization by algae. For this method, house coatings on standardized paper are used as test substrate and Chlorella fusca is used as test alga. It is furthermore possible to use pure cultures of other algae species of practical relevance.
The experiments were carried out in Petri dishes on agar nutrient media.
50 g of the material to be finished were, in separate batches, mixed with various concentrations of the algicide to be examined and homogenized for 3-5 min using a basket stirrer.
Paper carrier materials having the dimensions 90×270 mm (Schleicher & Schüll No. 2589 B/X 24078) were coated with the test material. The paint and/or render samples were coated to a wet-layer thickness of 250 μm by knife coating. […] In the case of renders, the layer thickness depends, as in practice, on the particle size. The coated carrier materials, hereinbelow referred to as test bodies, were subsequently dried in a horizontal position for five days.
[…] The cross section of the container for the watering in the direction of flow was 1000±500 cm^2.
From the pretreated test bodies, three sample bodies having a diameter of 5 cm were punched out and sterilized in a Co^60 source using at least 10 kGy.
Aseptically, the samples were placed onto the algae nutrient media, and the centre of the sample was inoculated with 5 ml of each algae suspension.
The mixture of the algae suspensions was spread on the surface using a Drigalski spatula or an offset sterile glass rod.
During the growth phase at 22±2° C., the coated samples in the Petri dishes were irradiated with light of an intensity of about 1000 Lux (customary fluorescent tubes, type D 67 daylight). A cycle of in each case 12 hours of irradiation and 12 hours of storage in the dark was used.
The colonization of the samples by algae was examined and evaluated after two weeks. Evaluation was carried out visually. The evaluation of the samples was based on the following evaluation scale:
No growth of algae on the test bodies
Formation of an inhibitory zone or growth of algae on the nutrient medium up to the edge of the test bodies
Visible colonization of the test body by algae

In the next assay the test system is Aspergillus niger (AN). Put plainly: Fungicidal finish (SM 022) of pure acrylate house paint. The class given is cell-based. The conditions noted are these: for Fungicidal finish, colonization rating AN: without stress due to 72 hours leaching (so in the source). The method, then:
as §1, §2
This laboratory method was used to determine the resistance of house coatings to fungal attack. For the method, house coatings on standardized paper were used as test substrate, and Aspergillus niger (ATCC 6275) and Penicillium funiculosum (ATCC 36839) were used as test fungi. The experiments were carried out in Petri dishes on dextrose nutrient medium.
50 g of the material to be finished were, in separate batches, mixed with various concentrations of the fungicide to be examined and homogenized for 3-5 min using a basket stirrer.
Paper carrier materials having the dimensions 90×270 mm (Schleicher & Schüll No. 2589 B/X 24078) were coated with the test material. The paint and/or render samples were coated to a wet-layer thickness of 250 μm by knife coating. […] In the case of renders, the layer thickness depended, as in practice, on the particle size. The coated carrier materials, hereinbelow referred to as test bodies, were subsequently dried in a horizontal position for five days.
The test bodies were watered in running tap water of 15±5° C. and a flow rate of 1 l/min for 72 hours and subsequently dried for two days. The cross section of the container for the watering in the direction of flow was 1000±500 cm^2.
From the pretreated test bodies, sample bodies having a diameter of 5 cm were punched out and sterilized in a Co^60 source using at least 10 kGy.
The Sabouraud dextrose agar, which had solidified in the Petri dish, was inoculated with 0.2 ml of spore suspension (10^7 spores/ml) and plated out using a sterile Drigalski spatula or an offset sterile glass rod.
The pretreated sample bodies were then evenly placed onto the inoculated surface of the nutrient medium using a pair of tweezers, making sure that the entire surface of the sample body was in contact with the surface of the nutrient medium. The sample was subsequently incubated at 30±2° C. for three weeks. For other test germs, the incubation temperature had to be adapted to achieve optimum growth.
After one, two and three weeks, the sample bodies were examined for fungal growth. Evaluation was carried out visually or—if this was required to exclude foreign infections—using a magnifying glass. If the extent of the colonization by foreign organisms observed considerably interfered with the evaluation, the experiment could not be evaluated and was repeated. The evaluation of the samples was based on the following evaluation scale:
00—entire plate free from colonization*
0—zone formation (no colonization around the sample)*
(0)—fungal colonization up to the sample*
1—only the sample edge is colonized*
2—the sample is colonized from the edge inwards (less than 25%)
3—the sample surface is colonized by individual colonies (25-75%)
4—the sample surface is colonized extensively (75% and more, but not the entire surface)
5—the sample surface is colonized completely (100%)
*Note: Samples evaluated as 00, 0, (0) and 1 can be referred to as “being effectively finished against fungal growth”.

[1] abbreviates: without stress due to 72 hours leaching (so in the source), use concentration 0.5%.
Setting [2] is: without stress due to 72 hours leaching (so in the source), use concentration 1.0%.
The mark [3] stands for this setting: without stress due to 72 hours leaching (so in the source), use concentration 2.0%.
[4] abbreviates: without stress due to leaching, use concentration 0.5%.
Where [5] appears, read: without stress due to leaching, use concentration 1.0%.
Where [6] appears, read: without stress due to leaching, use concentration 2.0%.

The structures appear in SMILES notation.

For the molecule `CC1CN(CN2COC(C)C2)CO1` (stereo not drawn) [Mar 71, 3,3′-methylenebis-(5-methyloxazolidine)], the “Algicidal action (in words)” value in the assay on Chlorella fusca (CF) (with stress due to leaching) is reported as “little algicidal action in practice”. Also, the Inhibitory zone in the assay with Chlorella fusca (CF) (setting [1]) is given as 0 mm; in the assay with Chlorella fusca (CF) (setting [2]) it was 0 mm; in the assay with Chlorella fusca (CF) (setting [3]), 0 mm; in the assay with Chlorella fusca (CF) (setting [4]) it was 12 mm; in the assay on Chlorella fusca (CF) (setting [5]), above 18 mm; with Chlorella fusca (CF) (setting [6]), above 18 mm. Further, the Surface colonization entry with Chlorella fusca (CF) (setting [1]) was “++”; with Chlorella fusca (CF) (setting [2]), “++”; with Chlorella fusca (CF) (setting [3]) it was “+++”; with Chlorella fusca (CF) (setting [4]), “−”; with Chlorella fusca (CF) (setting [5]), “−”; in the assay with Chlorella fusca (CF) (setting [6]) it was “−”. For the same molecule, the “Algicidal activity (in words)” value in the assay on Chlorella fusca (CF) (without stress due to leaching, use concentration from 0.5 to 2% by weight) is recorded as “good algicidal activity”. For the same molecule, the “Fungicidal activity (in words), AN” value in the assay on Aspergillus niger (AN) (house paint test) is recorded as “no fungicidal activity in practice”. The “Fungicidal finish, colonization rating AN” value in the assay with Aspergillus niger (AN) (use conc. 0.5% W/W, 1. week) is given as 5 (the sample surface is colonized completely (100%)); in the assay with Aspergillus niger (AN) (use conc. 0.5% W/W, 2. week), 5 (the sample surface is colonized completely (100%)); with Aspergillus niger (AN) (use conc. 1.0% W/W, 1. week) it was 5 (the sample surface is colonized completely (100%)); in the assay on Aspergillus niger (AN) (use conc. 1.0% W/W, 2. week), 5 (the sample surface is colonized completely (100%)); in the assay on Aspergillus niger (AN) (use conc. 2.0% W/W, 1. week) it was 5 (the sample surface is colonized completely (100%)); in the assay with Aspergillus niger (AN) (use conc. 2.0% W/W, 2. week) it was 5 (the sample surface is colonized completely (100%)).

(Values after US6348483B1, “Use of derivatives of methylene-bis-oxazolidine and compositions obtained thereby” (Air Liquide Sante (International), priority 1998, dated 2002).)
